Measurements as given in US20100078393A1, “BIOCIDAL COMPOSITIONS AND METHODS OF USE” (priority 2008, published 2010).

Experiments:
[1] = test system: Bacillus subtillus ATCC 8473; assay: Biocidal efficacy against aerobic bacteria, log reduction after 1 hour at 37° C.; assay type: cell-based; conditions: for Concentration required to achieve 3 log bacterial reduction in 1 hour, used in combination: active weight ratio 1:6; for Concentration required to achieve 3 log bacterial reduction in 1 hour, used alone: ppm active
Description: (§1) The synergy indexes reported in the following examples are calculated using the following equation:
(§2) Synergy Index=Ca/CA+Cb/CB
(§3) A synergy index (SI) of 1 indicates additivity, a synergy index of less than 1 indicates synergy, and a synergy index greater than 1 indicates antagonism.
(§4) Various methods known to those skilled in the art can be used for evaluating biocidal efficacy. In some of the examples below, a serial dilution technique is used, which determines viable bacteria remaining after a treatment regimen. The method is based or adapted (e.g., for high temperature testing or for the presence of sulfide) from the methodology described in inventor's pending international application PCT/US08/075755, filed Sep. 10, 2008, which is incorporated herein by reference.
(§5) A sterile NaCl solution (0.85%) is contaminated with bacterial inoculums at final bacterial concentration of approximately 10^6 CFU/ml. Then, biocide solution (single or in combination) is added into the bacterial suspension at various concentrations and immediately mixed well. After the mixtures are incubated at 37° C. for 1 hour, the viable bacteria left in the solution are determined. Bacterial log reduction is then calculated.

[2] = test system: Klebsiella pneumoniae ATCC 8308; assay: as above; assay type: cell-based; conditions: for Concentration required to achieve 3 log bacterial reduction in 1 hour, used in combination: active weight ratio 1:6; for Concentration required to achieve 3 log bacterial reduction in 1 hour, used alone: ppm active
Description: as §1, §2, §3, §4, §5

[3] = test system: Staphylococcus aureus ATCC 6538; assay: as above; assay type: cell-based; conditions: for Concentration required to achieve 3 log bacterial reduction in 1 hour, used in combination: active weight ratio 1:6; for Concentration required to achieve 3 log bacterial reduction in 1 hour, used alone: ppm active
Description: as §1, §2, §3, §4, §5

[4] = test system: Enterobacter aerogenes ATCC 13048; assay: as above; assay type: cell-based; conditions: for Concentration required to achieve 3 log bacterial reduction in 1 hour, used in combination: active weight ratio 1:6; for Concentration required to achieve 3 log bacterial reduction in 1 hour, used alone: ppm active
Description: as §1, §2, §3, §4, §5

[5] = test system: Pseudomonas putida ATCC 49128; assay: as above; assay type: cell-based; conditions: for Concentration required to achieve 3 log bacterial reduction in 1 hour, used in combination: active weight ratio 1:6; for Concentration required to achieve 3 log bacterial reduction in 1 hour, used alone: ppm active
Description: as §1, §2, §3, §4, §5

[6] = test system: Escherichia coli ATCC 11229; assay: as above; assay type: cell-based; conditions: for Concentration required to achieve 3 log bacterial reduction in 1 hour, used in combination: active weight ratio 1:6; for Concentration required to achieve 3 log bacterial reduction in 1 hour, used alone: ppm active
Description: as §1, §2, §3, §4, §5

[7] = test system: Pseudomonas aeruginosa ATCC 10145; assay: as above; assay type: cell-based; conditions: for Concentration required to achieve 3 log bacterial reduction in 1 hour, used in combination: active weight ratio 1:6; for Concentration required to achieve 3 log bacterial reduction in 1 hour, used alone: ppm active
Description: as §1, §2, §3, §4, §5

[8] = test system: oil field isolated anaerobic SRB consortium; assay: Biocidal efficacy against anaerobic SRB at 40° C., serial dilution method; assay type: cell-based, sulfate-reducing bacteria (SRB); conditions: for Concentration required for complete bacterial kill in 1 hour, used alone / Concentration required for 3 log bacterial kill in 2 hours, used alone: ppm active; for Concentration required for complete bacterial kill in 1 hour, used alone: 40° C.; for Concentration required for 3 log bacterial kill in 2 hours, used in combination: concentration of the labelled component
Description: as §1, §2, §3, §4
Inside an anaerobic chamber (Bactron III), a deaerated sterile salt solution (3.1183 g of NaCl, 1.3082 mg of NaHCO3, 47.70 mg of KCl, 72.00 mg of CaCl2, 54.49 mg of MgSO4, 172.28 mg of Na2SO4, 43.92 mg of Na2CO3 in 1 L water) is contaminated with an oil field isolated anaerobic SRB consortium at final bacterial concentrations of about 10^7 CFU/mL. […] […] Bacterial log reduction is then calculated.

[9] = concentration of the labelled component in glutaraldehyde + 4,4-dimethyl-oxazolidine combination
[10] = concentration of the labelled component in glutaraldehyde + 7-ethyl-bicyclooxazolidine combination

SMILES	Concentration required to achieve 3 log bacterial reduction in 1 hour, used in combination [1, 9]	Concentration required to achieve 3 log bacterial reduction in 1 hour, used alone [1]	Concentration required to achieve 3 log bacterial reduction in 1 hour, used in combination [2, 9]	Concentration required to achieve 3 log bacterial reduction in 1 hour, used alone [2]	Concentration required to achieve 3 log bacterial reduction in 1 hour, used in combination [3, 9]	Concentration required to achieve 3 log bacterial reduction in 1 hour, used alone [3]	Concentration required to achieve 3 log bacterial reduction in 1 hour, used in combination [4, 9]	Concentration required to achieve 3 log bacterial reduction in 1 hour, used alone [4]	Concentration required to achieve 3 log bacterial reduction in 1 hour, used in combination [5, 9]	Concentration required to achieve 3 log bacterial reduction in 1 hour, used alone [5]	Concentration required to achieve 3 log bacterial reduction in 1 hour, used in combination [6, 9]	Concentration required to achieve 3 log bacterial reduction in 1 hour, used alone [6]	Concentration required to achieve 3 log bacterial reduction in 1 hour, used in combination [7, 9]	Concentration required to achieve 3 log bacterial reduction in 1 hour, used alone [7]	Concentration required for complete bacterial kill in 1 hour, used alone [8]	Concentration required to achieve 3 log bacterial reduction in 1 hour, used in combination [1, 10]	Concentration required to achieve 3 log bacterial reduction in 1 hour, used in combination [2, 10]	Concentration required to achieve 3 log bacterial reduction in 1 hour, used in combination [3, 10]	Concentration required to achieve 3 log bacterial reduction in 1 hour, used in combination [4, 10]	Concentration required to achieve 3 log bacterial reduction in 1 hour, used in combination [5, 10]	other results
CC1(C)COCN1 [4,4-dimethyl-oxazolidine]	111.3 ppm	296.6 ppm	74.2 ppm	197.8 ppm	111.3 ppm	296.6 ppm	111.3 ppm	296.6 ppm	111.3 ppm	296.6 ppm	111.3 ppm	197.8 ppm	111.3 ppm	296.6 ppm	>1600.0 ppm	–	–	–	–	–	–
O=CCCCC=O [Glutaraldehyde]	18.6 ppm	44.5 ppm	12.4 ppm	44.5 ppm	18.6 ppm	44.5 ppm	18.6 ppm	44.5 ppm	18.6 ppm	44.5 ppm	18.6 ppm	44.5 ppm	18.6 ppm	44.5 ppm	26.3 ppm	12.4 ppm	12.4 ppm	18.6 ppm	18.6 ppm	18.6 ppm	Concentration required to achieve 3 log bacterial reduction in 1 hour, used in combination [6, 10]: 12.4 ppm; Concentration required to achieve 3 log bacterial reduction in 1 hour, used in combination [7, 10]: 18.6 ppm; Concentration required for 3 log bacterial kill in 2 hours, used alone [8]: 8.9 ppm
CCC12COCN1COC2 [7-ethyl-bicyclooxazolidine, 5-ethyl-1-aza-3,7-dioxabicyclo[3.3.0]octane]	–	296.6 ppm	–	197.8 ppm	–	296.6 ppm	–	296.6 ppm	–	296.6 ppm	–	296.6 ppm	–	296.6 ppm	–	74.2 ppm	74.2 ppm	111.3 ppm	111.3 ppm	111.3 ppm	Concentration required to achieve 3 log bacterial reduction in 1 hour, used in combination [6, 10]: 74.2 ppm; Concentration required to achieve 3 log bacterial reduction in 1 hour, used in combination [7, 10]: 111.3 ppm; Concentration required for 3 log bacterial kill in 2 hours, used in combination ([8]; glutaraldehyde:7-ethyl-bicyclooxazolidine weight ratio 1:1): 5.9 ppm; Concentration required for 3 log bacterial kill in 2 hours, used in combination ([8]; glutaraldehyde:7-ethyl-bicyclooxazolidine weight ratio 1:2): 11.9 ppm; Concentration required for 3 log bacterial kill in 2 hours, used in combination ([8]; glutaraldehyde:7-ethyl-bicyclooxazolidine weight ratio 1:5): 29.6 ppm; Concentration required for 3 log bacterial kill in 2 hours, used in combination ([8]; glutaraldehyde:7-ethyl-bicyclooxazolidine weight ratio 1:10): 39.5 ppm; Concentration required for 3 log bacterial kill in 2 hours, used in combination ([8]; glutaraldehyde:7-ethyl-bicyclooxazolidine weight ratio 1:20): 52.7 ppm; Concentration required for 3 log bacterial kill in 2 hours, used in combination ([8]; glutaraldehyde:7-ethyl-bicyclooxazolidine weight ratio 2:1): 4.4 ppm; Concentration required for 3 log bacterial kill in 2 hours, used in combination ([8]; glutaraldehyde:7-ethyl-bicyclooxazolidine weight ratio 5:1): 1.2 ppm; Concentration required for 3 log bacterial kill in 2 hours, used in combination ([8]; glutaraldehyde:7-ethyl-bicyclooxazolidine weight ratio 10:1): 0.6 ppm; Concentration required for 3 log bacterial kill in 2 hours, used in combination ([8]; glutaraldehyde:7-ethyl-bicyclooxazolidine weight ratio 20:1): 0.3 ppm; Concentration required for 3 log bacterial kill in 2 hours, used alone [8]: >2025 ppm
